Assay results published in PubChem BioAssay AID248 (DTP/NCI, 2004).
Inconclusive results and toxic doses are left out. No stated cut-off is given here; in the data, active means T/C of 150% or more; inactive means T/C below 125%.

Tested on: L1210 leukemia ip in BDF1 mice, survival T/C
Assay: NCI In Vivo Anticancer Drug Screen. Data for tumor model L1210 Leukemia (intraperitoneal) in B6D2F1 (BDF1) mice
Details: endpoint: mean survival time, higher = longer survival
Outline: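 Value reflects the ratio of survival in compound-treated mice to survival in vehicle-treated controls, with both groups carrying the same transplanted tumor.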

[1] = dose: 25.0 mg/kg/injection, schedule: Q01DX001 (ip), vehicle: Klucel (hydroxypropylcellulose) (HPC)
[2] = dose: 100.0 mg/kg/injection, schedule: Q01DX001 (ip), vehicle: Klucel (hydroxypropylcellulose) (HPC)
[3] = dose: 100.0 mg/kg/injection, schedule: Q01DX001 (ip), vehicle: saline
[4] = dose: 200.0 mg/kg/injection, schedule: Q01DX001 (ip), vehicle: saline
[5] = dose: 400.0 mg/kg/injection, schedule: Q01DX001 (ip), vehicle: saline
[6] = dose: 100.0 mg/kg/injection, schedule: Q04DX002 (ip), vehicle: Klucel (hydroxypropylcellulose) (HPC)
[7] = dose: 200.0 mg/kg/injection, schedule: Q04DX002 (ip), vehicle: Klucel (hydroxypropylcellulose) (HPC)
[8] = dose: 400.0 mg/kg/injection, schedule: Q04DX002 (ip), vehicle: Klucel (hydroxypropylcellulose) (HPC)
[9] = dose: 100.0 mg/kg/injection, schedule: Q01DX009 (ip), vehicle: saline
[10] = dose: 100.0 mg/kg/injection, schedule: Q04DX003 (ip), vehicle: saline with Tween-80
[11] = dose: 200.0 mg/kg/injection, schedule: Q01DX009 (ip), vehicle: saline
[12] = dose: 200.0 mg/kg/injection, schedule: Q04DX003 (ip), vehicle: saline with Tween-80
[13] = dose: 400.0 mg/kg/injection, schedule: Q04DX003 (ip), vehicle: saline with Tween-80
[14] = dose: 12.5 mg/kg/injection, schedule: Q01DX009 (ip), vehicle: saline with Tween-80
[15] = dose: 25.0 mg/kg/injection, schedule: Q01DX009 (ip), vehicle: saline with Tween-80
[16] = dose: 50.0 mg/kg/injection, schedule: Q01DX009 (ip), vehicle: saline with Tween-80
[17] = dose: 200.0 mg/kg/injection, schedule: Q01DX009 (ip), vehicle: saline with Tween-80
[18] = dose: 100.0 mg/kg/injection, schedule: Q01DX009 (ip), vehicle: Klucel (hydroxypropylcellulose) (HPC)
[19] = dose: 100.0 mg/kg/injection, schedule: Q01DX001 (ip), vehicle: carboxymethylcellulose (CMC)
[20] = dose: 200.0 mg/kg/injection, schedule: Q01DX001 (ip), vehicle: carboxymethylcellulose (CMC)
[21] = dose: 400.0 mg/kg/injection, schedule: Q01DX001 (ip), vehicle: carboxymethylcellulose (CMC)
[22] = dose: 100.0 mg/kg/injection, schedule: Q01DX009 (ip), vehicle: saline with Tween-80
[23] = dose: 100.0 mg/kg/injection, schedule: Q04DX003 (ip), vehicle: Klucel (hydroxypropylcellulose) (HPC)
[24] = dose: 200.0 mg/kg/injection, schedule: Q04DX003 (ip), vehicle: Klucel (hydroxypropylcellulose) (HPC)
[25] = dose: 400.0 mg/kg/injection, schedule: Q04DX003 (ip), vehicle: Klucel (hydroxypropylcellulose) (HPC)
[26] = dose: 200.0 mg/kg/injection, schedule: Q01DX009 (ip), vehicle: Klucel (hydroxypropylcellulose) (HPC)
[27] = dose: 400.0 mg/kg/injection, schedule: Q01DX009 (ip), vehicle: Klucel (hydroxypropylcellulose) (HPC)

Measured: T/C

C=C1CC(C)(c2ccccn2)OC1=O (stereo not drawn)
inactive: dose: 6.25 mg/kg/injection, schedule: Q04DX002 (ip), vehicle: Klucel (hydroxypropylcellulose) (HPC) 94 % of control | dose: 12.5 mg/kg/injection, schedule: Q04DX002 (ip), vehicle: Klucel (hydroxypropylcellulose) (HPC) 102 % of control | [1] 120 % of control | dose: 25.0 mg/kg/injection, schedule: Q04DX002 (ip), vehicle: Klucel (hydroxypropylcellulose) (HPC) 110 % of control | [2] 98 % of control

COC(=O)/C=C(\C)Nc1cc(OC)ccc1OC
inactive: [3] 94 % of control | [4] 87 % of control | [5] 92 % of control

COc1ccc(N=Cc2cc(Br)cc(Br)c2O)cc1.COc1ccc(N=Cc2cc(Br)cc(Br)c2O)cc1.[Co]
inactive: dose: 50.0 mg/kg/injection, schedule: Q04DX003 (ip), vehicle: saline 92 % of control | dose: 100.0 mg/kg/injection, schedule: Q04DX003 (ip), vehicle: saline 92 % of control | dose: 200.0 mg/kg/injection, schedule: Q04DX003 (ip), vehicle: saline 95 % of control

Cn1cc2c(=O)n(OS(=O)(=O)c3ccccc3)c(=O)[nH]c2n1
inactive: dose: 50.0 mg/kg/injection, schedule: Q01DX001 (ip), vehicle: saline 106 % of control | [3] 93 % of control | [4] 106 % of control | [5] 100 % of control

Cc1cc(-c2ccccc2O)nc(N(C)CC(=O)O)n1
inactive: [6] 94 % of control | [7] 98 % of control | [8] 96 % of control

CN(C)CCCC(=O)O
inactive: [9] 89 % of control | [10] 106 % of control | [11] 97 % of control | [12] 95 % of control | dose: 400.0 mg/kg/injection, schedule: Q01DX009 (ip), vehicle: saline 95 % of control | [13] 88 % of control

O=[N+]([O-])c1ccc(N/N=C2\C3CC(c4ccccc4)C2C(c2ccccc2)=C3c2ccccc2)c([N+](=O)[O-])c1 (stereo not drawn)
inactive: [14] 91 % of control | [15] 88 % of control | [16] 96 % of control | [17] 89 % of control

CC1=C(C)C23OCC(CO2)CC3=C(C)C1=O
inactive: dose: 100.0 mg/kg/injection, schedule: Q01DX001 (ip), vehicle: saline with Tween-80 93 % of control | dose: 200.0 mg/kg/injection, schedule: Q01DX001 (ip), vehicle: saline with Tween-80 122 % of control | dose: 400.0 mg/kg/injection, schedule: Q01DX001 (ip), vehicle: saline with Tween-80 104 % of control

COc1cc(Br)c(CCBr)cc1OC
inactive: dose: 25.0 mg/kg/injection, schedule: Q01DX009 (ip), vehicle: Klucel (hydroxypropylcellulose) (HPC) 98 % of control | dose: 50.0 mg/kg/injection, schedule: Q01DX009 (ip), vehicle: Klucel (hydroxypropylcellulose) (HPC) 94 % of control | [18] 100 % of control | [10] 96 % of control | [12] 94 % of control | [13] 104 % of control

Cc1nnc(S(=O)(=O)c2ccc(N=Nc3c(N)nc(N)nc3N)cc2)s1
inactive: [19] 92 % of control | [20] 97 % of control | [21] 94 % of control

Nc1cc(N2CCCC2)nc(-c2ccccc2)n1
inactive: [16] 98 % of control | [22] 95 % of control

C=CS(=O)(=O)CCCCCCCCCCCCCCCCCC
inactive: [23] 91 % of control | [24] 91 % of control | [25] 98 % of control

COc1ccc(CN2CCCN(Cc3ccc(OC)cc3)C2c2c(O)ccc3ccccc23)cc1
inactive: dose: 5.0 mg/kg/injection, schedule: Q01DX001 (ip), vehicle: acetone 100 % of control | dose: 10.0 mg/kg/injection, schedule: Q01DX001 (ip), vehicle: acetone 95 % of control | dose: 20.0 mg/kg/injection, schedule: Q01DX001 (ip), vehicle: acetone 92 % of control | dose: 40.0 mg/kg/injection, schedule: Q01DX001 (ip), vehicle: acetone 88 % of control

COC1OC(OC)[CH]([Hg][Cl])C1OC (stereo not drawn)
inactive: dose: 3.13 mg/kg/injection, schedule: Q01DX009 (ip), vehicle: saline with Tween-80 94 % of control | dose: 6.25 mg/kg/injection, schedule: Q01DX009 (ip), vehicle: saline with Tween-80 92 % of control | dose: 6.25 mg/kg/injection, schedule: Q04DX003 (ip), vehicle: saline 100 % of control | [14] 91 % of control | dose: 12.5 mg/kg/injection, schedule: Q04DX003 (ip), vehicle: saline 100 % of control

NC(=O)CCCCCCCC(N)=O
inactive: [23] 89 % of control | [24] 89 % of control | [25] 94 % of control

CC1C(N2CCCCC2)N(C(=O)c2ccccc2)SC12c1ccccc1-c1ccccc12 (stereo not drawn)
inactive: [6] 94 % of control | [7] 102 % of control | [8] 102 % of control

CCCCCCCCCCCCCCCCCCNC(=O)N1CCCCC1C (stereo not drawn)
inactive: [18] 89 % of control | [26] 96 % of control | [27] 100 % of control

CCCCCCCCCCCCCCCCSC(=N)N
inactive: dose: 100.0 mg/kg/injection, schedule: Q04DX003 (ip), vehicle: carboxymethylcellulose (CMC) 91 % of control | dose: 200.0 mg/kg/injection, schedule: Q04DX003 (ip), vehicle: carboxymethylcellulose (CMC) 93 % of control

CC(=O)NC(C)(CCOCc1ccccc1)C(=O)O (stereo not drawn)
inactive: dose: 50.0 mg/kg/injection, schedule: Q01DX001 (ip), vehicle: carboxymethylcellulose (CMC) 94 % of control | [19] 100 % of control | [20] 110 % of control | [21] 96 % of control

O=C(c1cccc([N+](=O)[O-])c1)c1cccc([N+](=O)[O-])c1
inactive: [2] 117 % of control | dose: 200.0 mg/kg/injection, schedule: Q01DX001 (ip), vehicle: Klucel (hydroxypropylcellulose) (HPC) 97 % of control | dose: 400.0 mg/kg/injection, schedule: Q01DX001 (ip), vehicle: Klucel (hydroxypropylcellulose) (HPC) 94 % of control

CC1CN(C(=O)Nc2ccc(Cl)cc2)CC(C)O1 (stereo not drawn)
inactive: [18] 100 % of control | [23] 100 % of control | [26] 101 % of control | [24] 89 % of control | [27] 113 % of control | [25] 97 % of control

C=CCN(CC=C)S(=O)(=O)c1cccc(C(=O)O)c1
inactive: [23] 103 % of control | [24] 92 % of control | [25] 105 % of control

CC1(C)N=C(N)N=C(N)N1c1ccc(CCNC(=O)c2ccc(S(=O)(=O)F)cc2)cc1
inactive: [1] 90 % of control | dose: 50.0 mg/kg/injection, schedule: Q01DX001 (ip), vehicle: Klucel (hydroxypropylcellulose) (HPC) 96 % of control | [2] 90 % of control

[Cu+2].[NH-]c1ccccc1C(=O)O.[NH-]c1ccccc1C(=O)O
inactive: [14] 101 % of control | dose: 12.5 mg/kg/injection, schedule: Q04DX003 (ip), vehicle: saline with Tween-80 97 % of control | [15] 101 % of control | dose: 25.0 mg/kg/injection, schedule: Q04DX003 (ip), vehicle: saline with Tween-80 97 % of control | [16] 88 % of control | dose: 50.0 mg/kg/injection, schedule: Q04DX003 (ip), vehicle: saline with Tween-80 90 % of control

FC(F)(F)c1nc2nc(Cl)c(Cl)nc2n1CCCN1CCOCC1
inactive: [22] 117 % of control | [17] 107 % of control | dose: 400.0 mg/kg/injection, schedule: Q01DX009 (ip), vehicle: saline with Tween-80 103 % of control

OCCOCCOCCN1CCN(C(c2ccccc2)c2ccc(Cl)cc2)CC1 (stereo not drawn)
inactive: dose: 12.5 mg/kg/injection, schedule: Q01DX009 (ip), vehicle: saline 95 % of control | dose: 25.0 mg/kg/injection, schedule: Q01DX009 (ip), vehicle: saline 100 % of control | dose: 50.0 mg/kg/injection, schedule: Q01DX009 (ip), vehicle: saline 101 % of control | [9] 95 % of control | [11] 91 % of control
